# Experimental data taken from US20030005484A1, “Microbiocidal and pesticidal aromatic aldehydes” (ProGuard, Inc., priority 1994, published 2003).
# “And” between values parts separate entries of the source, which are not always exact repeats. Equal entries are not always repeated.
# Legend:
# [1] = system: melon aphid (Aphis gossypii Glover); assay: melon aphid plant foliar bioassay on chrysanthemum; format: in vivo; details: for Mean Number of Aphid Nymphs Per Leaf: sprayed to runoff, after 36 hours, pre-count 60
# Experimental: Treatment of melon aphid (Aphis gossypii Glover) was conducted as follows. Chrysantemums (C. morifolum) were used for melon aphid plant foliar bioassays. Plants were grown in […] pots in planting soil in greenhouse. Flowering plants were infested and pre-count population size for each plant were taken and number of mean of aphids nymphs per leaf calculated. The plants were sprayed to runoff (about 5 ml) with an aqueous formulation containing 1,000 ppm, 3,000 ppm, and 10,000 ppm concentration of cinnamic aldehyde, and a negative control containing only H2O. After 36 hours, the number of insects on the leaves sprayed with a given test formulation was determined and compared with that of insects on leaves sprayed with negative control only. Mean number of aphid nymphs per leaf were determined to be less than 10 for each cinnamic aldehyde concentration as compared to a pre-count mean of about 60.
# [2] = system: rust; assay: rust (and spores) on roses, disease rating / MPDC after foliar spray; format: in vivo, Phragmidrium mucronatrum
# Experimental: Each formulation is evaluated for its effect on specific pests and/or plant host using any of the compounds of formula (1) as well as other components of the formulation such as Tween 80 and/or sodium bicarbonate, with the combination and effective amount of each component adapted for a particular application to minimize toxicity while maintaining or increasing the antipathogenic effect of the formulation. The effective amount of each component may be determined by systematically varying the amount of that component in a test formulation, treating a plant of interest with the test formulation, and monitoring the level of pest infestation compared to an untreated control plant. An effective amount of a test component is identified as the amount that controls the growth of the pathogen on the plant host, thus reducing the disease rating of the plant. The mean percentage disease […] (MPDC) can be calculated for each particular application. MPDC is defined by the formula: [formula] Eight cultivars of rose were tested to investigate the effect of a cinnamic aldehyde/NaHCO3 formulation on rust and spores. The cultivars used included Moss unnamed (Moss), […], Rosette Delize (Hybrid Tea), Rosa Rugosa Rubra (Rugosa), Abel Morrison (Hybrid perpetual), John Laing, Betty Prior, and Rose de Roi. […] The Hybrid Tea and Hybrid perpetual were rated 3 and the Rugosa was rated 1. […] Control plants received no treatment. […] Moreover, the treatment appeared to have induced systemic resistance. […] Plants were an average of 0.86 m apart. […] Controls were untreated plants. […] Weekly reviews were made of the various plants. […] Six cultivars of infected rose in dedicated experimental rose gardens were used. Four Mrs. John Laing (Hybrid perpetual) and two Marchionese of Londonderry (Hybrid perpetual) rose plants were treated with one of two formulations of coniferyl aldehyde. […] The first two Mrs. […] Mrs. […] Both Marchionese of Londonderry plants (P5 and P6) were rated 5 for powdery mildew and rust after Paulus and Nelson (supra). Two treatment formulae were used for this trial. […] Control plants were sprayed with water alone. The change in the rating from pre-treatment to post-treatment was calculated as the mean percentage of disease control (MPDC) as described herein.
# [3] = system: leafhoppers (western grape leafhopper and Virginia creeper leafhopper nymphs); assay: leafhoppers on grapevines, 1% and 2% spray; format: in vivo; details: for mean number of leafhoppers per leaf: one day after treatment, across cultivars, control 26.53
# Experimental: Treatment of leafhoppers (western grape leafhopper (WGL) and Virginia creeper leafhopper nymphs(VCLH)) on grapevines with cinnamic aldehyde was conducted to evaluate the protective effect of cinnamic aldehyde in different concentrations against leafhoppers on plants. A single application of 1% or 2% cinnamic aldehyde in 0.1% Tween-20 was sprayed onto the leaves of grapevines of different grape varietals (Cabernet Sauvignon, Chardonnay, Emerald Reisling and Pinot Noir) with a backpack CO2 powered sprayer at the field equivalent rate of approximately 150 gal./acre (0.5 gal. per treatment plot). Coverage on the bottom of grape leaves, where most leafhopper nymphs feed, ranged from 70%-80%. The number of leafhoppers on the leaves was counted prior to spraying and 1 day after spraying. Leafhopper numbers on grape vines were assessed by sampling 2 leaves from each of 3 grape vines per treatment (with a single vine buffer between each treatment), for which 2-3 replicates per treatment were examined. Control plants were untreated. Both concentrations of cinnamic aldehyde reduced the mean number of leafhoppers per leaf as compared to the control. The mean number of leafhoppers was defined as the sum of WGL plus VCLH per leaf.
# [4] = system: phylloxera Biotype A; assay: planter / field box vines, leaf spray, phylloxera population on roots; format: in vivo, Daktulosphaira vitifoliae; details: for Number of phylloxera per root piece: Merlot, two weeks; for reduction of population versus control vines: field planter boxes, after two weeks; for phylloxera population, Mean ± 95% CI: boxed 1 year old Merlot
# Text: Planter boxes are wooden boxes with a top surface area of 1.5 m×1 m and are 1.5 m tall. They were filled with a clay-loam soil and each was planted to 4 one-year old Merlot plants in early spring, 1995. They were infested with biotype A phylloxera in May, 1995 by placing about 150 eggs adjacent to an attached root under the soil surface. The plants were irrigated weekly with a fine mist. Treatments were made at various times in July and August 1995 using the household 1 liter-capacity plastic spray bottles, spraying to runoff. At one or two weeks after treatment, plants root systems were removed from the soil and total phylloxera populations were estimated.
# [5] = system: leafhoppers; assay: leafhoppers on cabernet sauvignon grapevines, 0.3% spray; format: in vivo; details: 0.3% CNMA; two days after spraying; untreated 2.46
# Experimental: The effect of 0.3% cinnamic aldehyde on leafhoppers and spider mites on grapevine leaves was examined. 30% cinnamic aldehyde was diluted 1:100 in water and sprayed one time on a 1 acre block of cabernet sauvignon grapevines in a vineyard using a 300 gal Pul-Blast rsprayer at 160 psi. 120 gal. were applied to one acre of vineyard. As a control, a one-acre block remained untreated. Blocks were pseudo-replicated so as to obtain an indication of the reliability of the treatment. Prior to treatment mites on leaves were pre-counted using a dissecting microscope. Leafhopper numbers also were determined in the field prior to treatment. Two days after spraying, two leaves, one from the basal portion and one from the proximal portion of the vine were examined from 16 vines from 2 rows for each treatment. Leaf samples also were taken from both sides of the vines (north and south) to include variation due to vine exposure. […]
# [6] = potted roses, ~100 ml foliar spray of 5 g cinnamic aldehyde, 80 g NaHCO3, 10 g Tween 80 per 1000 g, weekly saponin, observed 8 weeks
smiles,measurement,setting,value
O=C/C=C/c1ccccc1 [cinnamic aldehyde],Mean Number of Aphid Nymphs Per Leaf,"[1]; CNMA 1,000 ppm in H2O",6 ± 3
same,Mean Number of Aphid Nymphs Per Leaf,"[1]; CNMA 3,000 ppm in H2O",4 ± 3
same,Mean Number of Aphid Nymphs Per Leaf,"[1]; CNMA 10,000 ppm in H2O",1 ± 1
same,Mean number of aphid nymphs per leaf,"[1]; each concentration (1,000, 3,000, 10,000 ppm), pre-count mean of about 60",less than 10
same,"Mean Percentage of Disease Control (MPDC), rust","[2]; field rose Rose de Roi, same single spray, five week trial",85.0%
same,rust after a single treatment,[2]; [6],eradicative
same,spores after a single treatment,[2]; [6],eradicative
same,mean number of leafhoppers per leaf,[3]; 1% in 0.1% Tween-20,4.33 leafhoppers per leaf
same,mean number of leafhoppers per leaf,[3]; 2% in 0.1% Tween-20,2.13 leafhoppers per leaf
same,MEAN LEAFHOPPERS/LEAF,"[3]; Cabernet, 1% CNMA, control 15.33",3.0
same,MEAN LEAFHOPPERS/LEAF,"[3]; Chardonnay, 2% CNMA, control 23.75",3.83
same,MEAN LEAFHOPPERS/LEAF,"[3]; Emerald Reisling, 1% CNMA, control 51.12",5.67
same,MEAN LEAFHOPPERS/LEAF,"[3]; Pinot Noir, 2% CNMA, control 19.44",1.0
same,Number of phylloxera per root piece,"[4]; 1 K CNMA, one value per plant",133 and 72 and 95
same,Number of phylloxera per root piece,"[4]; 20 K (20,000 ppm CNMA in 6% NaHCO3 and 2% Tween-80)",16
same,reduction of population versus control vines,"[4]; 1,000 ppm leaf spray",92%
same,reduction of population versus control vines,"[4]; 10,000 ppm leaf spray",95%
same,"phylloxera population, Mean ± 95% CI","[4]; foliage to runoff, 1000 ppm, Exp. 1",100 ± 31
same,"phylloxera population, Mean ± 95% CI","[4]; foliage to runoff, 1000 ppm, Exp. 2",58 ± 17
same,"phylloxera population, Mean ± 95% CI","[4]; foliage to runoff, 10,000 ppm, Exp. 1",60 ± 37
same,"phylloxera population, Mean ± 95% CI","[4]; foliage to runoff, 10,000 ppm, Exp. 2",43 ± 56
same,LEAFHOPPERS/LEAF,[5],0.16
